In ChEMBL document CHEMBL1138076, “Synthesis and biological evaluation of lisofylline (LSF) analogs as a potential treatment for Type 1 diabetes” (Bioorg Med Chem Lett, 2006):
The source made the active and inactive calls. No cut-off for these calls is given here.

Legend:
[1] = tested on: INS1; test: Secretion of insulin in INS1 cells at 20 uM; assay type: functional, cell-based; settings: Rattus norvegicus
[2] = Stability in human liver microsomes at […] at pH 7.4; assay type: ADME, Microsome; settings: read-out: Stability
[3] = tested on: Pancreatic beta cell; test: Protection of cytokine-induced death of pancreatic beta cells at 0.1 uM; assay type: functional, cell-based; settings: Mus musculus
[4] = Half life in human liver; assay type: ADME, organism-based

C[C@@H](O)CCCCOc1nn(CCCC[C@@H](C)O)c(=O)c2ccccc12
Activity [1]: Active | remaining [2]: 75% | Activity [3]: Active

Cc1cnc2n(C)c(=O)n(CCCC[C@@H](C)O)c(=O)n12
Activity [1]: Active | remaining [2]: 82% | Activity [3]: Active

C[C@@H](O)CCCCn1c(=O)c2c(ncn2C)n(C)c1=O [LISOFYLLINE]
Activity [1]: Active | half-life [4]: < 3 min | Activity [3]: Active

CC(C)NCC(O)COc1cccc2ccccc12 (configuration not stated) [PROPRANOLOL]
remaining [2]: 34%

C[C@]12CC[C@H]3[C@@H](CCC4=CC(=O)CC[C@@]43C)[C@@H]1CC[C@@H]2O [TESTOSTERONE]
remaining [2]: 9%

CC(=O)CC(c1ccccc1)c1c(O)c2ccccc2oc1=O (configuration not stated) [WARFARIN]
remaining [2]: 105%
